Source: article PMC6433232, “Targeting mitochondria in cancer therapy could provide a basis for the selective anti-cancer activity” (PLoS ONE, 2019)
Like-named read-outs stand apart in the source and are kept apart here.

How the values were obtained:
[1] = test system: breast carcinoma HCC1187 cells; test: cells; assay type: cell-based; conditions: for CC50: Homo sapiens; for Selective cytotoxicity index HCC 1187 ATO: human
Description: For further analyses, we used compounds that have the selective cytotoxicity index either above 20 (non-toxic compounds) or below 1 (toxic compounds) with the aim to identify targets that are responsible for the selective activity of the identified compounds toward cancer cells. To confirm that the effects of the selected compounds are not only specific to MIA PaCa-2 cells, we evaluated their cytotoxic activities on breast carcinoma HCC1187 cells (Table 1). […] For easy comparison, the data with MIA PaCa-2 cells were also included in Table 1. […] We also noticed that, again with a few exceptions, HCC1187 cells are more resistant to the non-toxic compounds in the presence of ATO as compared to MIA PaCa-2 cells. In contrast, HCC1187 cells are more sensitive to all toxic compounds in the presence of ATO as compared to MIA PaCa-2 cells. The high sensitivity of HCC1187 cells to toxic compounds contributed to the increased selective cytotoxicity index.

[2] = biological target: T1, human GSR enzyme (recombinant GSR) (Homo sapiens, UniProt P00390); test: Glutathione reductase (GSR) activity assay; assay type: biochemical; conditions: for remaining activity at 30 µM: 2 h at 25°C, read-out: GSR, enzyme residual activity as compared to DMSO-treated sample; for inhibition at 30 µM: read-out: GSR-inhibiting activity
T1 construct: made in house; host or cells: E. coli BL21(DE3)
T1 sequence (P00390 44-522): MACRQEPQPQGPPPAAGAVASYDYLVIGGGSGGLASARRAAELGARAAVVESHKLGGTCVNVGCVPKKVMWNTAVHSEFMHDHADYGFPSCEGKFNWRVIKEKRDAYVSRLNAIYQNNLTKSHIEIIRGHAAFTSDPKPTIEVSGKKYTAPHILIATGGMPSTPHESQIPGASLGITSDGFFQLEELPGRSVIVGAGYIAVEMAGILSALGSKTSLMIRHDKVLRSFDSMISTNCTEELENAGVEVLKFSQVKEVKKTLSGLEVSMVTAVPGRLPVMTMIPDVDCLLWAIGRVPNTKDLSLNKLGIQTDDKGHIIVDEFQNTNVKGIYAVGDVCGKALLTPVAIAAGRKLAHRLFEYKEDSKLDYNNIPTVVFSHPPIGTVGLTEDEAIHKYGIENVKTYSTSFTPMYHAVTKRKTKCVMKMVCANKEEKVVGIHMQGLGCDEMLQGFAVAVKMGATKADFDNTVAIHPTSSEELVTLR
Procedure: Recombinant GSR (0.5 u/well) in a 96-well plate was incubated in the GSR assay buffer (50 mM potassium phosphate buffer, pH 7.5 supplemented with 1 mM EDTA), 100 μl with and without compound (30 μM) for 2 h at 25°C. At the end of incubation, 100 μl of solution containing NADPH (0.087 mM), oxidized glutathione (GSSG) (0.95 mM) and 1 μl of the reagent that detects ratio of GSSG to reduced glutathione (GSH) (Abcam) were added and the mixture was incubated for an additional 1 h at 25°C. GSR activity was measured by using 490-nm excitation and monitoring fluorescence at 520 nm with a fluorescence plate reader. One unit of GSR activity was defined as the amount of enzyme required to produce 1 μM of GSH in a total reaction volume of 200 μl in 1 minute in the GSR assay buffer containing NADPH (0.087 mM), GSSG (0.95 mM) and 1 μl of GSH/GSSG ratio detection reagent (Abcam).
Next, we evaluated the inhibitory activity of the selected compounds against human GSR enzyme using recombinant GSR and Abcam GSH/GSSG ratio detection reagent (Table 1). Briefly, GSR activity was measured by following oxidized glutathione (GSSG) reduction in the presence of NADPH and expressed as percentage of residual activity with respect to DMSO-treated enzyme. The residual activity of GSR for both the non-toxic and toxic compounds was quite heterogeneous, ranging from 100% (compounds 38) to 3% (compound 32). […] We thus conclude that GSR inhibitory activity alone cannot be used to predict the selective cytotoxicity index.

[3] = test system: Recombinant NADH/NADPH dehydrogenase; test: NADH/NADPH dehydrogenase-mediated ROS generation assay; assay type: biochemical; conditions: 30 μM, 4 h at 37°C; for H2O2 generation, NADH/NADPH dehydrogenase -: absence of NADH/NADPH dehydrogenase; for H2O2 generation, NADH/NADPH dehydrogenase +: presence of NADH/NADPH dehydrogenase
Procedure: Recombinant NADH/NADPH dehydrogenase (0.5 units/well) in a 96-well plate was incubated in 100 μl of the assay buffer (50 mM potassium phosphate buffer, pH 7.5 supplemented with 1 mM EDTA) containing NADPH (3 μM) and superoxide dismutase (SOD) (100 units/well) with and without compound (30 μM) for 4 h at 37°C. At the end of incubation, the level of hydrogen peroxide was measured using a Hydrogen Peroxide Assay kit (Cayman). Control samples were without NADH/NADPH dehydrogenase. The rate of NADH/NADPH dehydrogenase- and compound-mediated ROS production was determined by subtracting values that were obtained in the absence of NADPH dehydrogenase. One unit of NADH/NADPH dehydrogenase was defined as the amount of enzyme required to reduce 1.0 μmole cytochrome C per min/mg in the presence of menadione substrate at 37°C. One unit of SOD was defined as the amount of enzyme required to inhibit reduction of cytochrome C by 50% in a coupled system with xanthine oxidase at pH 7.8 at 25°C in a 3.0 mL reaction volume. Xanthine oxidase concentration should produce an initial ΔA550 of 0.025 ± 0.005 per min.
As the next step, we examined the capability of the selected compounds to generate ROS in the presence or absence of NADH/NADPH dehydrogenase (Table 1). ROS can be generated by NADH/NADPH-dehydrogenase via the one electron reduction of a quinone ring of 1,4-NQs. Unstable half-reduced quinones (semiquinones) transfer electrons to molecular oxygen, thus generating superoxide anion radicals (O2^●-), which are converted by SOD to hydrogen peroxide. We believe that our assay measuring compound’s ability to generate H2O2 in the presence or absence of NADH/NADPH dehydrogenase more closely resembles conditions inside the cell than the assay designed to measure compound’s redox potential values. […] To determine the ability of compounds to induce ROS, compounds were incubated for 4 h at 37°C with and without NADH/NADPH-dehydrogenase in the presence of NADPH as an electron donor and SOD to convert generated superoxide radicals into hydrogen peroxide. At the end of incubation, 10-acetyl-3,7-dihydroxyphenoxazine (ADHP) and horseradish peroxidase (HRP) were added to the reaction and the level of HRP-mediated formation of the fluorogenic product, resorufin, was measured on a plate reader. ROS production was detected in reactions with either the toxic or non-toxic compounds.

[4] = Distribution coefficient LogD; assay type: physicochemical; conditions: pH 7.4
Description: We conclude that the analysis of the octanol-water partitioning is not sufficient to establish a link between degree of lipophilicity and biological activities of the selected compounds.

in vitro = conditions: human
Description: We selected hepatocytes as normal cells because hepatocytes are mediate toxicity to multiple drugs and are used as a standard to assess toxicity of drugs in vitro [28]. […] For comparison with the standard of care, doxorubicin was also included in this analysis.

[5] = test system: Complex I (bovine heart mitochondria); test: MitoCheck Complex I activity assay; conditions: 30 μM; for Mito Check I, enzyme residual activity as compared to DMSO-treated sample: bovine heart mitochondria, NADH oxidation
Procedure: MitoCheck Complex I activity was determined as described in the manual of the manufacturer’s manual (Cayman). Briefly, compounds (30 μM) or DMSO were mixed with the Complex I activity assay buffer that contained bovine heart mitochondria reagent, NADH, and ubiquinone in the presence of KCN to inhibit complex IV activity. The level of Complex I activity was monitored in a kinetic assay of NADH oxidation by measuring a decrease in absorbance at 340 nm. The residual Complex I activity was calculated by dividing the rate of compound wells by the rate of DMSO wells for the linear portion of the curve.
To test possible effects of compounds on ETC, we analyzed the Complex I-mediated NADH oxidation using a MitoCheck Complex I Activity Assay Kit. The level of NADH oxidation was measured by a decrease in absorbance at 340 nm and expressed as percentage of residual activity in relation to DMSO-treated mitochondria (Table 1). […] Complex I activity was estimated by the rate of NADH oxidation which was also affected by NADH/NADPH-dehydrogenase-mediated redox cycling.

[6] = HCC1187, read-out: LC50 HCC1187
[7] = HCC1187, compound alone, unit not given in Table 1, read-out: LC50 HCC1187
[8] = octanol/water, read-out: LogD, pH = 7.4

Row | SMILES | CC50 [1, 6] [µM] | Selective cytotoxicity index HCC 1187 ATO [1] | remaining activity at 30 µM [2] [%] | H2O2 generation, NADH/NADPH dehydrogenase - [3] [µM] | H2O2 generation, NADH/NADPH dehydrogenase + [3] [µM] | logD [4] | CC50 (in vitro) [µM] | Mito Check I, enzyme residual activity as compared to DMSO-treated sample [5] [%] | inhibition at 30 µM [2] [%] | CC50 [1, 7] [µM] | logD [4, 8] | CC50 (in vitro; primary hepatocytes) [µM] | stimulation of Complex I activity [5] | inhibition of mitochondrial function (Complex I) [5] [%]
1 | CC1CN1C1=C(Cl)C(=O)c2ccccc2C1=O (stereo not shown) [compound 16] | 3.6 | 128.6 | 75 | 2.1 | 3.8 | 0.7 | 78 | 58 |  |  |  |  |  | 
2 | CC1=C(N2CC2)C(=O)c2ccccc2C1=O [compound 55] | 51.8 | 15.8 | 83 | 2.1 | 3.3 | 0.12 | > 90 | 72 | 17 |  |  |  |  | 
3 | O=C1C(Nc2ccccc2)=CC(=O)c2ncccc21 [compound 67, reference compound] |  |  | 53 | 5.5 | 11.9 |  |  | 116 |  | 3 | 3.45 | 17.8 |  | 
4 | CCCC(=O)NC1=C(Cl)C(=O)c2ccccc2C1=O [compound 31] |  |  | 28 | 5.7 | 9.0 |  |  | 159 |  | 1 | 2.03 | 1.6 | more than 30% | 
5 | CCCCCCCNC1=C(Cl)C(=O)c2ccccc2C1=O [compound 8] |  |  | 93 | 2.0 | 2.8 |  |  | 116 | 7 | 56.1 | 0.17 | 78.6 |  | 
6 | O=C1C(Cl)=C(Nc2ccccc2)C(=O)c2ccccc21 [compound 39] |  |  | 92 | 1.6 | 2.8 |  |  | 91 |  | 1.7 | 0.13 | 2.3 |  | 9
7 | CCCCC(=O)NC1=C(Cl)C(=O)c2ccccc2C1=O [compound 32] |  |  | 1 | 6.3 | 10.6 |  |  | 135 | 99 | 0.3 | 2.79 | 2.2 | more than 30% | 
8 | O=C1C(Cl)=C(NCCc2ccccc2)C(=O)c2ccccc21 [compound 36] |  |  | 42 | 7.0 | 6.3 |  |  | 135 |  |  | 0 | 8.8 | more than 30% | 
9 | CCNC1=CC(=O)c2ncccc2C1=O [compound 66] |  |  | 59 | 5.4 | 10.3 |  |  | 158 |  | 13.2 | 2.87 |  | more than 30% | 
10 | COC1=C(N2CC2)C(=O)c2ccccc2C1=O [compound 54] | 18.2 | 40.9 | 54 | 2.4 | 3.9 | 0.31 |  | 84 |  |  |  |  |  | 
11 | COC1=C(N(C)C)C(=O)c2ccccc2C1=O [compound 53] |  | 9.5 | 61 | 1.5 | 2.5 |  |  | 51 |  | > 90 | 0 |  |  | 
